Experimental data from publication PMC9834664, “Linking medicinal cannabis to autotaxin–lysophosphatidic acid signaling” (Life Science Alliance, 2023).
Entries after “also recorded” stand apart in the source; their conditions may differ.

Tests used:
ATX-β [1] = molecular target: T1, ATX-β (Homo sapiens, UniProt Q13822); experiment: End-point choline release assay, relative inhibition by cannabinoids; format: biochemical; conditions: 10 µM compound; for inhibition of ATX-β catalysis: LPC 18:1 200 µM; for ANOVA comparison with CTRL, ATX-β inhibition: significance threshold P 0.005
T1 construct: made in house; host or cells: HEK293-Flp-In cells, protein purified from the culture medium
Description: (§1) We first set out to validate the hypothesis that cannabinoids might bind ATX to modulate its catalytic function. For this, we used various cannabinoids (Fig 1A) at a fixed concentration of 10 µM for each compound in our biochemical validation with LPC 18:1 (200 µM) as substrates in an end-point assay for ATX-β (UniProt ID: Q13822-1) and ATX-γ (UniProt ID: Q13822-3) (Fig 1B and C). […] In addition, we can exclude interference of the cannabinoid compounds in our enzymatically coupled assay, as no difference is detectable in the absence of ATX and LPC (Fig S1B), performed in the presence of choline.
(§2) ATX lysophospholipase D activity was measured using choline release from LPC 18:1 and LPC 16:0 with a choline quantification kit ([Hausmann et al, 2016]) (Fig S6D). 30 nM ATX-β or ATX-γ was incubated with 200 µM LPC 18:1 or LPC 16:0 in a final volume of 100 µl buffer, which contained 50 mM Tris–HCl (pH 8.5) and 150 mM NaCl. The LPC solution was obtained by evaporating a commercial LPC chloroform solution directly in a 1.5-ml Eppendorf tube under vacuum. The dried LPC was then resuspended in water to obtain the mentioned concentration and incubated at 37°C on a shaker for 5–10 min before addition to the microplate. The cannabinoid solutions were prepared from a stock solution in ethanol or other organic solvents. After initial evaporation and/or dilution to obtain the highest concentration mentioned in the assay figure, a twofold dilution was performed in Eppendorf tubes. All the compounds were dissolved in 100% ethanol as a vehicle.
(§3) The experiments for determining relative inhibition for various cannabinoids were performed at 37°C by adding 10 µM of the cannabinoid or endocannabinoid mentioned. Released choline was detected, and the enzyme activity was determined by measuring fluorescence at λex/λem = 540/590 nm in 96-well plates, every 60 s for 50 min minimum using a CLARIOstar plate reader (BMG Labtech). Absolute values were taken at 25 min after visual inspection, and the 0-min baselines were subtracted to account for compound differences. The relative inhibition values were determined using the normalize method in GraphPad Prism (GraphPad Software, Inc.). Measurements have been performed in triplicate with three different protein preparations. All the compounds were controlled for interference of fluorescence and inhibition in the same assay conditions but in the absence of ATX and replacing LPC with choline.

ATX-γ [2] = molecular target: T2, ATX-γ (Homo sapiens, UniProt Q13822); experiment: as above; format: biochemical; conditions: 10 µM compound; for inhibition of ATX-γ catalysis: LPC 18:1 200 µM; for ANOVA comparison with CTRL, ATX-γ inhibition: significance threshold P 0.005
T2 construct: made in house; host or cells: HEK293-Flp-In cells, protein purified from the culture medium
Description: as §1, §2, §3

CB1 = conditions: cited from earlier work
CB2 = conditions: cited from earlier work
[3] = test system: LPA1 receptor internalization in HA/LPA1-transfected HeLa cells; experiment: hLPA1 receptor internalization assay; format: cell-based, human
ATX-β [4] = molecular target: T1, ATX-β; experiment: Dose–response choline release assay; format: biochemical; conditions: LPC 18:1
Description: (§4) ATX lysophospholipase D activity was measured using choline release from LPC 18:1 and LPC 16:0 with a choline quantification kit ([Hausmann et al, 2016]). 30 nM ATX-β or ATX-γ was incubated with 200 µM LPC 18:1 or LPC 16:0 in a final volume of 100 µl buffer, which contained 50 mM Tris–HCl (pH 8.5) and 150 mM NaCl. The LPC solution was obtained by evaporating a commercial LPC chloroform solution directly in a 1.5-ml Eppendorf tube under vacuum. The dried LPC was then resuspended in water to obtain the mentioned concentration and incubated at 37°C on a shaker for 5–10 min before addition to the microplate.
(§5) The experiment for determining apparent EC50 for various cannabinoids was performed at 37°C by adding the cannabinoid in a serial twofold dilution for each concentration. The cannabinoid solutions were prepared from a stock solution in ethanol or other organic solvents. After initial evaporation and/or dilution to obtain the highest concentration mentioned in the assay figure, a twofold dilution was performed in Eppendorf tubes. All the compounds were dissolved in 100% ethanol as a vehicle. […] For CBN, 5-DMH-CBD, and CBD, the starting concentration was 50 µM, 150 µM, and 2 mM, respectively. Released choline was detected, and the enzyme activity was determined by measuring fluorescence at λex/λem = 540/590 nm in 96-well plates, every 60 s for 50 min minimum using a CLARIOstar plate reader (BMG Labtech). Initial velocities were taken between 19 and 31 min after visual inspection. The apparent EC50 values were determined using the non-linear regression analysis method (fit: [inhibitor] versus response [three parameter]) in GraphPad Prism (GraphPad Software, Inc.). However, it should be mentioned that the relative concentrations of the different lipids/inhibitors in their physical form as micelles, liposomes, protein-bound, or aggregates are unknown ([Carman et al, 1995]). These uncertainties are widely known, and we provide here an apparent EC50 for consideration. Measurements have been performed in triplicate with three different protein preparations. […]

ATX-γ [5] = molecular target: T2, ATX-γ; experiment: Dose–response choline release assay; format: biochemical; conditions: LPC 18:1
Description: as §4, §5

ATX-γ [6] = molecular target: T2, ATX-γ; experiment: Mode of inhibition analysis with increasing LPC 18:1; format: biochemical; parameters: Vmax: unit not given here
[7] = ref Hunault et al, 2008, cited from earlier work
[8] = no reference given; cited from earlier work

Molecule | inhibition of ATX-β catalysis (ATX-β [1]) | ANOVA comparison with CTRL, ATX-β inhibition (ATX-β [1]) | inhibition of ATX-γ catalysis (ATX-γ [2]) | ANOVA comparison with CTRL, ATX-γ inhibition (ATX-γ [2]) | other results
CCCCCn1cc(C(=O)c2cccc3ccccc23)c2ccccc21 [JWH018] | did not influence the catalytic activity | not significantly inhibited | did not influence the catalytic activity | not significantly inhibited | Ki (CB1; CB1, ref Aung et al, 2000): 9 ± 8 nM; Ki (CB2; CB2, ref Aung et al, 2000): 2.9 ± 2.7 nM
C=C(C)[C@@H]1CCC(C)=C[C@H]1c1c(O)cc(CCCCC)cc1O [CBD, cannabidiol] | weak inhibition | statistically significant differences | no observable inhibition |  | 
lysophosphatidic acid [LPA] |  |  |  |  | LPA1 internalization ([3]; LPA treatment of cells (1 µM LPA 18:1)): high LPA1 receptor internalization
CCCCCc1cc(O)c2c(c1)OC(C)(C)[C@@H]1CCC(C)=C[C@@H]21 [THC, Δ^9-trans-tetrahydrocannabinol] | more than 50% | statistically significant differences | more than 50% |  | magnitude of inhibition (maximum inhibition) (ATX-β [4]): around 60%; type of inhibitor (ATX-β [4]): partial inhibitor; type of inhibitor (ATX-γ [5]): partial inhibitor; Vmax (ATX-γ [6]; 0.35 µM THC (8.5 without THC)): 7.3; Km (ATX-γ [6]; 0.35 µM THC (10.1 without THC)): 19.6 µM; Vmax (ATX-γ [6]; 0.7 µM THC (8.5 without THC)): 6.3; Km (ATX-γ [6]; 0.7 µM THC (10.1 without THC)): 29.9 µM; Vmax (ATX-γ [6]; 1.4 µM THC (8.5 without THC)): 5.0; Km (ATX-γ [6]; 1.4 µM THC (10.1 without THC)): 31.5 µM; mode of inhibition (ATX-γ [6]; ATX-γ, LPC 18:1): mixed-type inhibition; also recorded: mixed-type inhibitor; LPA1 internalization ([3]; 30 nM ATX, 150 µM LPC 18:1, 1 µM THC, paired t test P = 0.0008): significantly reduced LPA1 internalization; also recorded: reduced the number of endosomes internalized; LPA1 internalization ([3]; LPA in the presence of THC): LPA1 receptors were internalized; LPA1 internalization ([3]; THC alone (1 µM)): No internalization; inhibition of ATX-LPA signaling (LPA1 internalization) ([3]; higher LPC concentration, 400 µM LPC, P = 0.0068): not abolished; binding to CB1 (CB1; ref Pertwee, 2008): low nanomolar regime; binding to CB2 (CB2; ref Pertwee, 2008): low nanomolar regime; mean THC peak in serum ([7]; 69.4-mg THC dose, SD = 106.8): 190.4 ng/mL; serum concentration of THC, lower end of range in molar units ([7]; after a 49.1-mg THC dose, equals 59 ng/ml): 190 nM; serum concentration of THC, upper end of range in molar units ([7]; after a 49.1-mg THC dose, equals 421 ng/ml): 1300 nM; bound to plasma proteins [8]: 95–97%
CCCCC/C=C\C/C=C\C/C=C\C/C=C\CCCC(=O)OC(CO)CO [2-AG, 2-arachidonoylglycerol] | did not affect the catalysis | not significantly inhibited | did not affect the catalysis | not significantly inhibited | 
CCCCC/C=C\C/C=C\C/C=C\C/C=C\CCCC(=O)NCCO [anandamide] | did not affect the catalysis | not significantly inhibited | did not affect the catalysis | not significantly inhibited | 
CCCCCc1cc2c(c(O)c1C(=O)O)[C@@H]1C=C(C)CC[C@H]1C(C)(C)O2 [Tetrahydrocannabinolic acid, tetrahydrocannabinolic acid] | < 50% | statistically significant differences | < 50% |  | 
CCCCCc1cc(O)c2c(c1)OC(C)(C)C1=C2C[C@H](C)CC1 [6a10aTHC, 9(R)-Δ6a,10a-THC] | further increase in the magnitude of inhibition | statistically significant differences | further increase in the magnitude of inhibition |  | 
